Laboratory results: publication PMC7369900 (International Journal of Molecular Sciences, 2020)
Converted amounts (≈) assume the structure as drawn.

Legend:
HEK 293 [1] = assay: cells; type: cell-based, human; conditions: HEK 293, 72 h, MTT
Experimental: (§1) Among the conjugates, LVXC-S-S-CTP10-NH2 (5) was the least cytotoxic. […] In the case of HEK 293 and LLC-PK1 cells, the IC50 values of 5 were nearly four times higher. […] Additionally, we noted that the cancer cells Hep G2 were less sensitive to the action of the given compounds than the non-cancer cells (HEK 293 and LLC-PK1).
(§2) Cytotoxicity was assessed against three mammalian cell lines: LLC-PK1, Hep G2, and HEK 293. Multiwell (96–well) plates were seeded at 7000 cells/well in Medium 199 supplemented with 7.5% FBS, MEM Eagle’s medium supplemented with 10% FBS, or DMEM medium supplemented with 10% FBS, respectively. All media were supplemented with L-glutamine and antibiotics (penicillin/streptomycin). Cells were allowed to attach overnight. Drugs were dissolved in cell culture medium and added to wells in 100-µL aliquots of 2× concentrated solutions, in triplicates. To control wells, 100 µL of the medium were added. Cells were incubated with the studied compounds for 72 h at 37 °C and 95%/5% or 90%/10% (HEK 293 cells) CO2 atmosphere. Then, 20-µL aliquots of MTT solution in PBS (4 mg/mL) were added to all wells and plates were incubated further for 3 h in 37 °C. Formazan crystals formed were dissolved in 100 µL of DMSO and the absorbance of the solutions was measured using a multiwell plate reader (Spark, Tecan, Männedorf, Switzerland) at λ = 540 nm. Cytotoxicity was determined compared to the drug-free control. All experiments were performed in triplicates.

Hep G2 = assay: cells; type: cell-based, human; conditions: Hep G2, 72 h, MTT
Experimental: as §1, §2

LLC-PK1 = assay: cells; type: cell-based, pig; conditions: LLC-PK1, 72 h, MTT
Experimental: as §1, §2

S. aureus ATCC 29213 = assay: microbe, parasite or virus in culture; type: cell-based, Staphylococcus aureus; conditions: S. aureus ATCC 29213, MHB
Experimental: (§3) The antibacterial activity of TP10-NH2-based conjugates, as well as its constituents, was evaluated by microdilution assay in Mueller Hinton broth, MHB (Table 1). […] There are, however, some exceptions. […] Its activity against two other tested bacteria was somewhat lower though.
(§4) The antibacterial activity (bacteriostatic: MIC and bactericidal: MBC) of the tested compounds was determined in MHB (Mueller Hinton Broth, Sigma Aldrich, St. Louis, MO, USA) using a serial two-fold dilution method in 96-well microtiter plates according to CLSI recommendations, described in M07-A10 document. The exact conditions have been described previously. All experiments were performed in three replicates. The MIC90 and MIC50 values were defined as the concentrations of compounds tested that caused a 90% or 50% reduction of growth, respectively, comparing to the drug-free control.

[2] = system: S. epidermidis ATCC 12228; assay: microbe, parasite or virus in culture; type: cell-based, Staphylococcus epidermidis; conditions: S. epidermidis ATCC 12228, MHB
Experimental: as §3, §4

E. coli ATCC 25922 = assay: microbe, parasite or virus in culture; type: cell-based, Escherichia coli; conditions: E. coli ATCC 25922, MHB
Experimental: as §3, §4

P. aeruginosa ATCC 27853 = assay: microbe, parasite or virus in culture; type: cell-based, Pseudomonas aeruginosa; conditions: P. aeruginosa ATCC 27853, MHB
Experimental: as §3, §4

[3] = system: Gram-positive and Gram-negative bacteria; type: cell-based; conditions: MHB, Gram-positive bacteria
Experimental: as §3, §4

[4] = target: T1, yeast DNA topoisomerase II (Saccharomyces cerevisiae, UniProt P06786); assay: biochemical; type: biochemical; conditions: class; read-out: Topoisomerase II Inhibition
T1 construct: purchased Inspiralis (Norwich, UK)

HEK 293 [5] = assay: ROS generation (CM-H2DCFDA, flow cytometry); type: cell-based, human; conditions: for ROS HEK 293: positive cells in 24 h, class
Experimental: (§5) In the positive controls treated with H2O2, the fraction of ROS-positive cells exceeded 75%. […] Strikingly, in HL-60, a biologically significant effect was observed almost immediately (after 15 min of incubation). The same was noted after 1 h in the HEK 293 cell line. […] Similarly, conjugates 4 and 5 generated ROS at the low level (less than 15% for HL-60 and less than 20% for HEK 293) (manuscript in preparation). […] For HL-60, the critical level of ROS was noted after 15 min of incubation.
(§6) ROS generation activity was evaluated as described previously. Briefly, HEK 293 cells were seeded on 35-mm Petri dishes in the amount of 15,000 cells per plate for 24 h in DMEM medium. […] Positive controls contained 250 µM H2O2, while negative controls were without any additions. After 0.5, 2.5, 5.5, and 24 h of incubation at 37 °C, the CM-H2DCFDA molecular probe (Thermo Fischer Scientific, Waltham, USA) was added to the plates and incubation was continued for another 0.5 h. The HEK 293 cells were detached with 0.05% trypsin solution in PBS and HBSS (Hank’s Balanced Salt Solution) and suspended in fresh DMEM medium. All samples were additionally stained with 7-AAD (7-aminoactinomycin D, 0.8 µg/mL) and immediately analysed with a Guava easyCyte flow cytometer (Merc, Burlington, USA). The determinations were performed in triplicates.

HL-60 = assay: ROS generation (CM-H2DCFDA, flow cytometry); type: cell-based, human; conditions: for ROS HL-60: positive cells in 24 h, class
Experimental: as §5, §6

[6] = system: C. albicans Δopt1Δopt5Δptr2Δptr22
human red blood cells = assay: Hemolysis assay; conditions: 1 h, 37 °C

T1 sequence (P06786 whole entry): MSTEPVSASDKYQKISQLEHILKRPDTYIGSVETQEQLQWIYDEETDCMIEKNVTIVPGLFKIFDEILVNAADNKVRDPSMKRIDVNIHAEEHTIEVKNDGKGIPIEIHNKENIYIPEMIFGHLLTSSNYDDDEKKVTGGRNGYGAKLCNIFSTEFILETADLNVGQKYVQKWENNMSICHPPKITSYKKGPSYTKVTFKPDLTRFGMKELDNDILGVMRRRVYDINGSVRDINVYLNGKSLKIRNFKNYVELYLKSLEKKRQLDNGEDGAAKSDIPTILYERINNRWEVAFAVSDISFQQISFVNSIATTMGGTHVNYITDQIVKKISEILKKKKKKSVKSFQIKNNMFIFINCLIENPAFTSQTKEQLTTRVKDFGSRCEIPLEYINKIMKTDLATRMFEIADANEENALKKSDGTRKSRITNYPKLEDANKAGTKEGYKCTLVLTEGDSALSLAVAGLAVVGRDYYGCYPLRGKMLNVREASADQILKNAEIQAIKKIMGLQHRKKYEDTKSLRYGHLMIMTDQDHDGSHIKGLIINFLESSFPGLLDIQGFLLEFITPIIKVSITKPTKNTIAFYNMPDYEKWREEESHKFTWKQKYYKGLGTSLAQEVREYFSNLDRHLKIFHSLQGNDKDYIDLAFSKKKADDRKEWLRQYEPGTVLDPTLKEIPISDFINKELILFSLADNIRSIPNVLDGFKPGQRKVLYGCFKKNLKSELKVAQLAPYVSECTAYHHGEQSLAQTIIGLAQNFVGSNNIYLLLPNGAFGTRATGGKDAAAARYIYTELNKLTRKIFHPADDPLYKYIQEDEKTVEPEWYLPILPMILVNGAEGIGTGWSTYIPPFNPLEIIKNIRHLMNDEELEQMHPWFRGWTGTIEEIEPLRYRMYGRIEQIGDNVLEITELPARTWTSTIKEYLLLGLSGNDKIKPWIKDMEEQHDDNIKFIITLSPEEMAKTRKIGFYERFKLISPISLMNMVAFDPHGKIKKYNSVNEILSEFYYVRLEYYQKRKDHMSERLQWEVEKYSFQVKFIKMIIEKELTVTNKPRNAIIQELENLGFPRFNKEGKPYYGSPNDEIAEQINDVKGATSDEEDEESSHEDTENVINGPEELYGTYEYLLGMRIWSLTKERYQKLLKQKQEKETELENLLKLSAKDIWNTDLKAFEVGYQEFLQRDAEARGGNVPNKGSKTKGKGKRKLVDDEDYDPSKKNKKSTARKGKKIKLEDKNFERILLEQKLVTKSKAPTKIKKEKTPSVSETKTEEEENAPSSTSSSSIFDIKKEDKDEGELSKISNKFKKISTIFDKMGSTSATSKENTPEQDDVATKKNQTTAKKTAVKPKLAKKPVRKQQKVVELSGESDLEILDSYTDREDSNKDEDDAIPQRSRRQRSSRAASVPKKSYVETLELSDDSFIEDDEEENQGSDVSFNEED

| Compound | IC50 (HEK 293 [1]) | IC50 (Hep G2) | IC50 (LLC-PK1) | MIC50 (S. aureus ATCC 29213) | MIC90 (S. aureus ATCC 29213) | MIC50 [2] | MIC90 [2] | MIC50 (E. coli ATCC 25922) | MIC90 (E. coli ATCC 25922) | MIC50 (P. aeruginosa ATCC 27853) | MIC90 (P. aeruginosa ATCC 27853) | IC50 [4] | ROS level (positive cells) (HEK 293 [5]; HEK 293) | ROS HEK 293 (HEK 293 [5]) | MIC50 (C. albicans SC 5314) | MIC50 [6] | MIC90 [6] | MIC50 (C. albicans Gu4) | MIC50 (C. glabrata DSM 11226) | MIC50 (C. krusei DSM 6128) | other results |
| --- | --- | --- | --- | --- | --- | --- | --- | --- | --- | --- | --- | --- | --- | --- | --- | --- | --- | --- | --- | --- | --- |
| CC[C@H](C)[C@H](NC(=O)[C@H](CCCCN)NC(=O)[C@H](CCCCN)NC(=O)[C@H](C)NC(=O)[C@H](CC(C)C)NC(=O)[C@H](C)NC(=O)[C@H](C)NC(=O)[C@H](CC(C)C)NC(=O)[C@H](C)NC(=O)[C@H](CCCCN)NC(=O)[C@H](CC(C)C)NC(=O)[C@H](CC(N)=O)NC(=O)[C@@H](NC(=O)[C@H](CCCCN)NC(=O)CNC(=O)[C@H](CC(C)C)NC(=O)[C@H](CC(C)C)NC(=O)[C@H](Cc1ccc(O)cc1)NC(=O)CNC(=O)[C@H](C)NC(=O)[C@@H](N)CS)[C@@H](C)CC)C(=O)N[C@@H](CC(C)C)C(N)=O [CTP10-NH2] | 19.5 ± 2.93 µM | 60 ± 5.75 µM | 51.6 ± 8.66 µM | – | – | – | – | – | – | – | – | – | – | – | – | – | – | – | – | – | – |
| CC[C@H](C)[C@H](NC(=O)[C@H](CCCCN)NC(=O)[C@H](CCCCN)NC(=O)[C@H](C)NC(=O)[C@H](CC(C)C)NC(=O)[C@H](C)NC(=O)[C@H](C)NC(=O)[C@H](CC(C)C)NC(=O)[C@H](C)NC(=O)[C@H](CCCCN)NC(=O)[C@H](CC(C)C)NC(=O)[C@H](CC(N)=O)NC(=O)[C@@H](NC(=O)[C@H](CCCCN)NC(=O)CNC(=O)[C@H](CC(C)C)NC(=O)[C@H](CC(C)C)NC(=O)[C@H](Cc1ccc(O)cc1)NC(=O)CNC(=O)[C@H](C)NC(=O)c1cn2c3c(c(N4CCN(C)CC4)c(F)cc3c1=O)OC[C@@H]2C)[C@@H](C)CC)C(=O)N[C@@H](CC(C)C)C(N)=O [Compound 4, LVX-TP10-NH2] | 22.5 ± 9.7 µM | 72.6 ± 13 µM | 52.9 ± 8.15 µM | 1.6 µM (≈ 4.04 µg/mL) | 1.6 µM (≈ 4.04 µg/mL) | 1.6 µM (≈ 4.04 µg/mL) | 1.6 µM (≈ 4.04 µg/mL) | 50 µM (≈ 126 µg/mL) | 50 µM (≈ 126 µg/mL) | 100 µM (≈ 253 µg/mL) | 100 µM (≈ 253 µg/mL) | < 10 µM | less than 20% | ++ (++ <10% positive cells in 24 h) | 50 µM (≈ 126 µg/mL) | 100 µM (≈ 253 µg/mL) | 100 µM (≈ 253 µg/mL) | 25 µM (≈ 63.1 µg/mL) | >200 µM | 100 µM (≈ 253 µg/mL) | MIC90 against Gram-positive bacteria [3]: 1.6 µM (≈ 4.04 µg/mL); ROS level (positive cells) (HL-60; HL-60): less than 15%; ROS HL-60 (HL-60): + (+ <15% positive cells in 24 h); MIC90 (C. albicans SC 5314): 100 µM (≈ 253 µg/mL) |
| CC[C@H](C)[C@H](NC(=O)[C@H](CCCCN)NC(=O)[C@H](CCCCN)NC(=O)[C@H](C)NC(=O)[C@H](CC(C)C)NC(=O)[C@H](C)NC(=O)[C@H](C)NC(=O)[C@H](CC(C)C)NC(=O)[C@H](C)NC(=O)[C@H](CCCCN)NC(=O)[C@H](CC(C)C)NC(=O)[C@H](CC(N)=O)NC(=O)[C@@H](NC(=O)[C@H](CCCCN)NC(=O)CNC(=O)[C@H](CC(C)C)NC(=O)[C@H](CC(C)C)NC(=O)[C@H](Cc1ccc(O)cc1)NC(=O)CNC(=O)[C@H](C)NC(=O)[C@@H](N)CSSC[C@H](NC(=O)c1cn2c3c(c(N4CCN(C)CC4)c(F)cc3c1=O)OC[C@@H]2C)C(=O)O)[C@@H](C)CC)C(=O)N[C@@H](CC(C)C)C(N)=O [Compound 5, LVXC-S-S-CTP10-NH2] | 41.3 ± 1.1 µM | 102 ± 4.9 µM | 105 ± 15.6 µM | 6.25 µM (≈ 17.2 µg/mL) | 6.25 µM (≈ 17.2 µg/mL) | 3.125 µM (≈ 8.59 µg/mL) | 3.125 µM (≈ 8.59 µg/mL) | 3.125 µM (≈ 8.59 µg/mL) | 3.125 µM (≈ 8.59 µg/mL) | 12.5 µM (≈ 34.3 µg/mL) | 25 µM (≈ 68.7 µg/mL) | < 50 µM | less than 20% | ++ (++ <10% positive cells in 24 h) | 12.5 µM (≈ 34.3 µg/mL) | 12.5 µM (≈ 34.3 µg/mL) | 25 µM (≈ 68.7 µg/mL) | 12.5 µM (≈ 34.3 µg/mL) | >200 µM | 50 µM (≈ 137 µg/mL) | ROS level (positive cells) (HL-60; HL-60): less than 15%; ROS HL-60 (HL-60): ++ (++ <10% positive cells in 24 h); MIC90 (C. albicans SC 5314): 25 µM (≈ 68.7 µg/mL); MHC50 (concentration causing 50% hemolysis) (human red blood cells): 140 µg/mL; MHC50 (concentration causing 50% hemolysis) (human red blood cells; converted from μg/mL): ~ 51 μM |
| CC[C@H](C)[C@H](NC(=O)[C@H](CCCCN)NC(=O)[C@H](CCCCN)NC(=O)[C@H](C)NC(=O)[C@H](CC(C)C)NC(=O)[C@H](C)NC(=O)[C@H](C)NC(=O)[C@H](CC(C)C)NC(=O)[C@H](C)NC(=O)[C@H](CCCCN)NC(=O)[C@H](CC(C)C)NC(=O)[C@H](CC(N)=O)NC(=O)[C@@H](NC(=O)[C@H](CCCCN)NC(=O)CNC(=O)[C@H](CC(C)C)NC(=O)[C@H](CC(C)C)NC(=O)[C@H](Cc1ccc(O)cc1)NC(=O)CNC(=O)[C@H](C)NC(=O)[C@@H](N)CSSC[C@H](N)C(=O)N1CCN(c2cc3c(cc2F)c(=O)c(C(=O)O)cn3C2CC2)CC1)[C@@H](C)CC)C(=O)N[C@@H](CC(C)C)C(N)=O [Compound 6, CIPC-S-S-CTP10-NH2] | 20.8 ± 10.9 µM | 37.7 ± 2.84 µM | 21.3 ± 1.33 µM | 3.125 µM (≈ 8.49 µg/mL) | 3.125 µM (≈ 8.49 µg/mL) | 6.25 µM (≈ 17 µg/mL) | 6.25 µM (≈ 17 µg/mL) | 6.25 µM (≈ 17 µg/mL) | 6.25 µM (≈ 17 µg/mL) | >100 µM | >100 µM | – | – | ++ (++ <10% positive cells in 24 h) | 50 µM (≈ 136 µg/mL) | 50 µM (≈ 136 µg/mL) | 50 µM (≈ 136 µg/mL) | 25 µM (≈ 67.9 µg/mL) | >200 µM | >200 µM | ROS induction (HEK 293 [5]; HEK 293): did not induce a significant level of ROS; Incubation time at which significant/critical ROS level was noted (HL-60; HL-60): 15 min |
